Measured values reported in patent US10118902B2 (Sanford Burnham Prebys Medical Discovery Institute, priority 2014, dated 2018).

Biological target: neurotensin receptor 1 (NTR1) (Homo sapiens (Human), UniProt P30989)
Experiment: NTR1 dose response, high-content imaging beta-arrestin-GFP assay in NTR1-U2OS cells
Format: cell-based
Conditions: read-out: EC50

neurotensin receptor 1 (NTR1), sequence (P30989 whole entry, species assumed): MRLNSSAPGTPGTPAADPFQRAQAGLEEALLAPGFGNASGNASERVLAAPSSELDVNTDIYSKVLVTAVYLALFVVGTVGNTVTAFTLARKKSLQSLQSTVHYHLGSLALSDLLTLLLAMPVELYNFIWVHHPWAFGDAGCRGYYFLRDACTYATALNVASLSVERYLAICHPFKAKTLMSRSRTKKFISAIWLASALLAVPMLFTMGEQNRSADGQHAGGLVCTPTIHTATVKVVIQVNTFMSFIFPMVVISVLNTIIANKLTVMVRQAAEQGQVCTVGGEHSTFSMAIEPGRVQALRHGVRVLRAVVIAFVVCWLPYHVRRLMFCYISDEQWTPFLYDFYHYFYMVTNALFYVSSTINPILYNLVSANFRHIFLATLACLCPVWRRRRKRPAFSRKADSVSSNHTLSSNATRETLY

| SMILES | EC50 [nM] |
| --- | --- |
| CN(C)c1ccccc1C1CCN(c2nc(C3CCCC3)nc3ccc(N(C)CCN4CCOCC4)cc23)CC1 [Example 74, {2-cyclopentyl-4-[4-(2-dimethylamino-phenyl)-piperidin-1-yl]-quinazolin-6-yl}-methyl-(2-morpholin-4-yl-ethyl)-amine] | 2000 to 10000 |
| CN(C)c1ccccc1C1CCN(c2nc(C3(F)CCCC3)nc3ccc(N(C)CCO)cc23)CC1 [Example 75, 2-{[4-[4-(2-dimethylamino-phenyl)-piperidin-1-yl]-2-(1-fluoro-cyclopentyl)-quinazolin-6-yl]-methyl-amino}-ethanol] | 2000 to 10000 |
| COc1ccccc1C1CCN(c2nc(C3CC3)nc3ccc(N4CCC(O)CC4)cc23)CC1 [Example 76, 1-{2-cyclopropyl-4-[4-(2-methoxy-phenyl)-piperidin-1-yl]-quinazolin-6-yl}-piperidin-4-ol] | 2000 to 10000 |
| COc1ccccc1C1CCN(c2nc(C3CC3)nc3ccc(N4CCC(OC)CC4)cc23)CC1 [Example 77] | 2000 to 10000 |
| COc1ccccc1C1CCN(c2nc(C3CC3)nc3ccc(N4CCC(N(C)C)CC4)cc23)CC1 [Example 78, (1-{2-cyclopropyl-4-[4-(2-methoxy-phenyl)-piperidin-1-yl]-quinazolin-6-yl}-piperidin-4-yl)-dimethyl-amine] | > 10000 |
| COc1ccccc1C1CCN(c2nc(C3CC3)nc3ccc(N4CCC(O)C4)cc23)CC1 (stereo not drawn) [Example 79, 1-{2-cyclopropyl-4-[4-(2-methoxy-phenyl)-piperidin-1-yl]-quinazolin-6-yl}-pyrrolidin-3-ol] | 500 to 2000 |
| COc1ccccc1C1CCN(c2nc(C3CC3)nc3ccc(N4CCC(OC)C4)cc23)CC1 (stereo not drawn) [Example 80, 2-cyclopropyl-4-[4-(2-methoxy-phenyl)-piperidin-1-yl]-6-(3-methoxy-pyrrolidin-1-yl)-quinazoline] | 500 to 2000 |
| COc1ccccc1C1CCN(c2nc(C3CC3)nc3ccc(N4CC[C@@H](O)C4)cc23)CC1 [Example 81, (R)-1-{2-cyclopropyl-4-[4-(2-methoxy-phenyl)-piperidin-1-yl]-quinazolin-6-yl}-pyrrolidin-3-ol] | < 500 |
| COc1ccccc1C1CCN(c2nc(C3CC3)nc3ccc(N4CC[C@H](O)C4)cc23)CC1 [Example 82, (S)-1-(2-cyclopropyl-4-(4-(2-methoxyphenyl)piperidin-1-yl)quinazolin-6-yl)pyrrolidin-3-ol] | 500 to 2000 |
| COc1ccccc1C1CCN(c2nc(C3CC3)nc3ccc(N4CC[C@@H](OC)C4)cc23)CC1 [Example 83, (R)-2-cyclopropyl-4-(4-(2-methoxyphenyl)piperidin-1-yl)-6-(3-methoxypyrrolidin-1-yl)quinazoline] | < 500 |
| COc1ccccc1C1CCN(c2nc(C3CC3)nc3ccc(N4CC[C@H](OC)C4)cc23)CC1 [Example 84, (S)-2-cyclopropyl-4-(4-(2-methoxyphenyl)piperidin-1-yl)-6-(3-methoxypyrrolidin-1-yl)quinazoline] | 500 to 2000 |
| CCCN(C)Cc1ccc2nc(C3CC3)nc(N3CCC(c4ccccc4OC)CC3)c2c1 [Example 85, {2-cyclopropyl-4-[4-(2-methoxy-phenyl)-piperidin-1-yl]-quinazolin-6-ylmethyl}-methyl-propyl-amine] | > 10000 |
| COc1ccccc1C1CCN(c2nc(C3CC3)nc3ccc(CN(C)C)cc23)CC1 [Example 86, {2-cyclopropyl-4-[4-(2-methoxy-phenyl)-piperidin-1-yl]-quinazolin-6-ylmethyl}-dimethyl-amine] | > 10000 |
| COCCN(C)Cc1ccc2nc(C3CC3)nc(N3CCC(c4ccccc4OC)CC3)c2c1 [Example 87, {2-cyclopropyl-4-[4-(2-methoxy-phenyl)-piperidin-1-yl]-quinazolin-6-ylmethyl}-(2-methoxy-ethyl)-methyl-amine] | 2000 to 10000 |
| COc1ccccc1C1CCN(c2nc(C3CC3)nc3ccc(CN(C)CCN4CCOCC4)cc23)CC1 [Example 88, {2-cyclopropyl-4-[4-(2-methoxy-phenyl)-piperidin-1-yl]-quinazolin-6-ylmethyl}-methyl-(2-morpholin-4-yl-ethyl)-amine] | > 10000 |
